This is an account of results in article PMC7794631 (Medicinal Chemistry Research, 2021).

Where two headings read alike, the source gives them in different places.

Series [1] can be described thus: in vitro. The following applies: dog.
For series [2], the system named is HCMV immediate-early protein 1 (IE1). The following applies: infected and treated cells; cited from earlier work.
The test system of series [3] is HCMV ADCREGFP
To be noted: cited from earlier work.

Series [4] relates to HCMV immediate-early protein 2 (IE2). The following applies: infected and treated cells; cited from earlier work.
For the next series, the system named is Huh-7 cells. The following applies: at 0.1 μM, Huh-7, 5 days.
Series [5] relates to IAV A/WS/33 (H1N1).
In series [6] the test system is HCMV ADCREGFP
To be noted: HFFs; for EC50: read-out: EC50 (μM) ± s.d., GFP reporter HCMV, GFP expression 6 days after compound, mean of 2–3 dose–response determinations.

The subject of series [7] is IAV A/WS/33 (H1N1). The series can be described thus: microbe, parasite or virus in culture. To be noted: Influenza A virus, H1N1, MDCK, 24 h.
The subject of series [8] is IAV A/WS/33 (H1N1). To be noted: cited from earlier work.
The next series concerns MDCK cells. To be noted: 24 h, T-1105 at 12.5 μM.
The next series has as its system HFFs. The series can be described thus: Cell viability assay. Format: cell-based, human. The following applies: read-out: CC50 (μM) ± s.d., 6 days, MTS assay, mean of 2–3 dose–response determinations.
A short description of series [9]: in vitro. The following applies: human, Compound only, percent viable cells ± standard deviation.
The next series concerns HCoV-OC43. The following applies: at 1 μM, Huh7, 5 days.
The mark [10] stands for this setting: MDCK CPE assay, p97 inhibitors 0.1, 0.25, 0.5 μM, T-1105 at 12.5 μM.

On to `Cc1cc(OCc2nnc(SC3CCCC3)n2-c2cccnc2)ccc1-c1ccc(S(C)(=O)=O)cc1` [NMS-873], for which, in the series “in vitro [1]”, the viability at 0.1 µM amounted to 89 ± 3%, the viability at 0.25 µM was 80 ± 2% and the viability at 0.5 µM was determined as 94 ± 2%. In [2], the IE1 expression entry is reported as “not affected”. Further, the “HCMV replication (in words)” value in the series on HCMV ADCREGFP [3] is listed as “reduced virus replication”. Also, the IE2 expression result in series [4] is on record as “reduced”. In addition, in the series on Huh-7 cells, the “effect on cell viability (in words)” value is “clear effect on cell viability”. Moreover, the “anti-IAV activity (in words)” value with IAV A/WS/33 (H1N1) [5] (setting [10]) is reported as “Clear antiviral effects”. In the series on HCMV ADCREGFP [6] (HCMV), the “TI, tissue culture therapeutic index (CC50/EC50)” value was found to be 1.9. In addition, the EC50 with HCMV ADCREGFP [6] was found to be 2.2 ± 2.5 µM. Further, the inhibition at 0.1 µM in the series on IAV A/WS/33 (H1N1) [7] (read-out: Compound + Virus, percent viable cells ± standard deviation, 0.1 μM, MDCK, 24 h) was 21 ± 7%. The inhibition at 0.25 µM in the series on IAV A/WS/33 (H1N1) [7] (read-out: Compound + Virus, percent viable cells ± standard deviation, 0.25 μM, MDCK, 24 h) was 62 ± 6%. Further, in the series on IAV A/WS/33 (H1N1) [8], the “IAV virus production (in words)” value is listed as “inhibits virus production”. The “cell viability in IAV assay (in words)” value with MDCK cells is given as “retention of cell viability”. The cytotoxic concentration (CC50) in the series with HFFs was found to be 4.1 ± 3.3 µM.

`Cc1cc2c(C(N)=O)cccc2n1-c1nc2c(c(NCc3ccccc3)n1)COCC2` [CB-5083] came in with a viability at 0.1 µM in “in vitro [1]” of 97 ± 3%. In the series “in vitro [9]”, this compound gave a viability at 0.25 µM of 59 ± 3% and a viability at 0.5 µM of 38 ± 1%. Moreover, the “anti-IAV activity (in words)” value in the series with IAV A/WS/33 (H1N1) [5] was “no detectable anti-IAV activity”. Also, in the series with HCMV ADCREGFP [6], the EC50 came to 0.72 ± 1.1 µM. For the same compound, the CC50 in the series on HFFs is 0.53 ± 0.1 µM.

With `NC(=O)c1nccnc1O` [Compound T-1105, 3-hydroxypyrazine-2-carboxamide], the “anti-IAV activity (in words)” value in the series with IAV A/WS/33 (H1N1) [5] (setting [10]) is recorded as “Clear antiviral effects”. Besides, the “cell viability in IAV assay (in words)” value in the series on MDCK cells was “retention of cell viability”.

Regarding `CCC(CC)COC(=O)[C@H](C)N[P@](=O)(OC[C@H]1O[C@@](C#N)(c2ccc3c(N)ncnn23)[C@H](O)[C@@H]1O)Oc1ccccc1` [RDV, remdesivir], the “protection against HCoV-OC43 CPE” value in the series with HCoV-OC43 is listed as 100%.
